In general, TD50 refers to the dose at which the toxic effect under study appears in half of the subjects. In general, inhibition refers to the drop in the measured response relative to a control, in per cent. A word on the ED50: it is the dose that gives a 50% effect, or the effect in half of the subjects.

The values below come from ChEMBL document CHEMBL3875185, “Structure-anticonvulsant activity studies in the group of (E)-N-cinnamoyl aminoalkanols derivatives monosubstituted in phenyl ring with 4-Cl, 4-CH3 or 2-CH3” (Bioorg Med Chem, 2017).

The source made the active and inactive calls. The calls are words filed in the database; no cut-off is given here. Some results are limits rather than exact numbers.

Data set [1] is described as follows: Neurotoxicity in po dosed Sprague-Dawley rat assessed as behavioral change. In kind it is toxicity, organism-based. To be noted: in vivo.
Data set [2] addresses T1, C-X-C chemokine receptor type 2 (Homo sapiens) (UniProt P25025).
T1 sequence (whole entry): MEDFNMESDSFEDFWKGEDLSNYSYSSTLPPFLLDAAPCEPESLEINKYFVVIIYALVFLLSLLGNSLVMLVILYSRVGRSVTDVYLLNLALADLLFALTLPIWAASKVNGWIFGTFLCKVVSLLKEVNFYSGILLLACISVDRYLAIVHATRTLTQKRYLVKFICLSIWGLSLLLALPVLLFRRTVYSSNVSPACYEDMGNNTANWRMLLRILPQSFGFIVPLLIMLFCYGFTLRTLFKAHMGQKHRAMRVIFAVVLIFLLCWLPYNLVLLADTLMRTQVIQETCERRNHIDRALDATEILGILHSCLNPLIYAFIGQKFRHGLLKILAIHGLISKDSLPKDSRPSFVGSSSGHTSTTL
Kind of data set: Displacement of [125I]IL-8 from human recombinant CXCR2 expressed in HEK293 cells at 100 uM measured after 60 mins by scintillation counting method relative to control. The class given is cell-based.

Data set [3] addresses 5-hydroxytryptamine receptor 1B (Rattus norvegicus) (UniProt P28564). Kind of data set: Displacement of [125I]CYP from rat cerebral cortex 5HT1B receptor at 100 uM measured after 120 mins by scintillation counting method relative to control.
Data set [4] deals with Mus musculus. Kind of data set: Anticonvulsant activity in ip dosed 6-Hz induced seizure mouse model assessed as restoration of normal activity within 10 secs from stimulation by measuring time to peak effect at 44 mA. In kind it is functional.
Data set [5] concerns the target T2, Muscarinic acetylcholine receptor M4 (Homo sapiens) (UniProt P08173).
T2 sequence (whole entry): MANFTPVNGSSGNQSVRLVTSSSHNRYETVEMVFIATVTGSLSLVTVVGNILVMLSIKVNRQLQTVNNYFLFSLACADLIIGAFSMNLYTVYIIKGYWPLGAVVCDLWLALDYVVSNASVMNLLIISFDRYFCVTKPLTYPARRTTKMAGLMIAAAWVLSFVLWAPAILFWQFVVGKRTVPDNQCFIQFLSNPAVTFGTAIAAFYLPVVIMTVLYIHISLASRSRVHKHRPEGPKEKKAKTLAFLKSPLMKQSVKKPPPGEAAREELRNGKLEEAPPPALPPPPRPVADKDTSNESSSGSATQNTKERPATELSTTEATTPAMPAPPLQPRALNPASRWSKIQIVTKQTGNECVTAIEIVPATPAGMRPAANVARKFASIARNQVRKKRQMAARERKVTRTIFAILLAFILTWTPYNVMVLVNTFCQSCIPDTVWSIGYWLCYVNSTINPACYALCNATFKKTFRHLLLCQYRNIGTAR
As to the kind of experiment: Displacement of [3H]4-DAMP from human recombinant M4 receptor expressed in CHO cells at 100 uM measured after 60 mins by scintillation counting method relative to control. The class given is cell-based. A general note: Loss of bound radioactivity is the signal in a displacement assay; it reports binding, not function.

Data set [6] is described as follows: Protection index, ratio of TD50 for neurotoxicity in ip dosed mouse to ED50 for ip dosed 6-Hz induced seizure mouse model at 44 mA. As to conditions: in vivo, read-out: Ratio TD50/ED50. The class given is toxicity, organism-based.
Data set [7] has as its system Mus musculus. As to the kind of experiment: Anticonvulsant activity in ip dosed 6-Hz induced seizure mouse model assessed as restoration of normal activity within 10 secs from stimulation at 44 mA. The class given is functional.
Data set [8] concerns the target Adenosine receptor A2a (Homo sapiens) (UniProt P29274). As to the kind of experiment: Displacement of [3H]CGS 21680 from human recombinant adenosine receptor A2A expressed in HEK293 cells at 100 uM measured after 120 mins by scintillation counting method relative to control. The class given is cell-based.
Data set [9] is described as follows: Neurotoxicity in po dosed mouse. In kind it is toxicity, organism-based. As to conditions: in vivo.
The test system of data set [10] is Rattus norvegicus. As to the kind of experiment: Anticonvulsant activity in ip dosed pentylenetetrazole induced seizure Sprague-Dawley rat model assessed as no observable episode of clonic convulsion of at least 5 secs. The class given is functional.
Data set [11] has as its target D(2) dopamine receptor (Homo sapiens) (UniProt P14416). Kind of data set: Displacement of [3H]methyl-spiperone from human recombinant dopamine D2S receptor expressed in HEK293 cells at 100 uM measured after 60 mins by scintillation counting method relative to control. The class given is cell-based.
The target of data set [12] is Sodium-dependent noradrenaline transporter (Homo sapiens) (UniProt P23975). As to the kind of experiment: Displacement of [3H]nisoxetine from human recombinant norepinephrine transporter expressed in CHO cells at 100 uM measured after 120 mins by scintillation counting method relative to control. In kind it is cell-based.
Sequence of Sodium-dependent noradrenaline transporter (Homo sapiens) (P23975 whole entry): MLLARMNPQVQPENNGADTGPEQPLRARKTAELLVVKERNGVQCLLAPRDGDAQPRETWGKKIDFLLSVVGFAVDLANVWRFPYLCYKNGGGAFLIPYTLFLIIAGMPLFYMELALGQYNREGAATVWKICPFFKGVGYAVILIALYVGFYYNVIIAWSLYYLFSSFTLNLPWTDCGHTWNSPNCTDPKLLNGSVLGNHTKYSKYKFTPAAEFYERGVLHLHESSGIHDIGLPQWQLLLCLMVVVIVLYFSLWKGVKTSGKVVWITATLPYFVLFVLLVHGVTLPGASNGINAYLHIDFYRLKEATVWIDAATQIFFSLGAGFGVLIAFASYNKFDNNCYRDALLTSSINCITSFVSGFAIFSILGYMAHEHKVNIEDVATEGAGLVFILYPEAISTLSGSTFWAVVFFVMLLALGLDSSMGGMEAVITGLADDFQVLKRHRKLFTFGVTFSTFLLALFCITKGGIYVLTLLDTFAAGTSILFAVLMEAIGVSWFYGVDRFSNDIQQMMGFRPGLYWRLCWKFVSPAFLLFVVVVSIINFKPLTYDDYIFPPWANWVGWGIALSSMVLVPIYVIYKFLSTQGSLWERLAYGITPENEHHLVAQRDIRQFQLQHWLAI
The target in data set [13] is 5-hydroxytryptamine receptor 6 (Homo sapiens) (UniProt P50406). As to the kind of experiment: Displacement of [3H]LSD from human recombinant 5HT6 receptor expressed in CHO cells at 100 uM measured after 120 mins by scintillation counting method relative to control. The class given is cell-based.
Sequence of 5-hydroxytryptamine receptor 6 (Homo sapiens) (P50406 whole entry): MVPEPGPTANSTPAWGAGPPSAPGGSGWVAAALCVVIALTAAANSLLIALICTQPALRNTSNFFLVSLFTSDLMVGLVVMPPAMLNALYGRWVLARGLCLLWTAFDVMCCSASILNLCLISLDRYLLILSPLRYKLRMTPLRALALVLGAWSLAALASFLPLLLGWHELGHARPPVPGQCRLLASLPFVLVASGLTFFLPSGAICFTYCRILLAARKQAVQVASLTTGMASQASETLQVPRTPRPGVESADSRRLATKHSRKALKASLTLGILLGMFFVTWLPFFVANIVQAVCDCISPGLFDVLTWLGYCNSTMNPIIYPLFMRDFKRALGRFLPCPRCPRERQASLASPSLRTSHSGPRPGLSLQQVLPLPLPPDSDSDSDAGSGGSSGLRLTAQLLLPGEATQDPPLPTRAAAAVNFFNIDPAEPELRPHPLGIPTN
The target in data set [14] is Beta-2 adrenergic receptor (Homo sapiens) (UniProt P07550). As to the kind of experiment: Displacement of [3H]CGP 12177 from human recombinant beta2 adrenergic receptor expressed in CHO cells at 100 uM measured after 120 mins by scintillation counting method relative to control. The class given is cell-based.
Sequence of Beta-2 adrenergic receptor (Homo sapiens) (P07550 whole entry, looked up): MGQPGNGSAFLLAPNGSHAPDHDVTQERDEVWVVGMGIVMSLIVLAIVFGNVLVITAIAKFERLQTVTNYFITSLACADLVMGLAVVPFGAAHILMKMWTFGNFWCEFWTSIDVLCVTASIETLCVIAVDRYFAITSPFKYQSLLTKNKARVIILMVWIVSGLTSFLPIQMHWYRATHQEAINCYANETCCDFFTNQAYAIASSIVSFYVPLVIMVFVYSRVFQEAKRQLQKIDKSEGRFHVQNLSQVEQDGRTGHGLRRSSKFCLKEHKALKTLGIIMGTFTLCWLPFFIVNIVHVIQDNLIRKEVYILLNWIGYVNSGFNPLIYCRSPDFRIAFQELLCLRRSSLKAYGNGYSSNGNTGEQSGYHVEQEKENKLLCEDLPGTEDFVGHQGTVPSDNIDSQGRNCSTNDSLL
Data set [15] deals with Rattus norvegicus. Kind of data set: Anticonvulsant activity in po dosed maximal electroshock induced seizure Sprague-Dawley rat model assessed as suppression in hindlimb tonic extension by measuring time to peak effect. The class given is functional. In general terms: The maximal electroshock test induces tonic seizures with an electrical stimulus.
In data set [16] the target is Cannabinoid receptor 1 (Homo sapiens) (UniProt P21554). As to the kind of experiment: Displacement of [3H]CP 55940 from human recombinant CB1 receptor expressed in CHO cells at 100 uM measured after 120 mins by scintillation counting method relative to control. The class given is cell-based.
Sequence of Cannabinoid receptor 1 (Homo sapiens) (P21554 whole entry): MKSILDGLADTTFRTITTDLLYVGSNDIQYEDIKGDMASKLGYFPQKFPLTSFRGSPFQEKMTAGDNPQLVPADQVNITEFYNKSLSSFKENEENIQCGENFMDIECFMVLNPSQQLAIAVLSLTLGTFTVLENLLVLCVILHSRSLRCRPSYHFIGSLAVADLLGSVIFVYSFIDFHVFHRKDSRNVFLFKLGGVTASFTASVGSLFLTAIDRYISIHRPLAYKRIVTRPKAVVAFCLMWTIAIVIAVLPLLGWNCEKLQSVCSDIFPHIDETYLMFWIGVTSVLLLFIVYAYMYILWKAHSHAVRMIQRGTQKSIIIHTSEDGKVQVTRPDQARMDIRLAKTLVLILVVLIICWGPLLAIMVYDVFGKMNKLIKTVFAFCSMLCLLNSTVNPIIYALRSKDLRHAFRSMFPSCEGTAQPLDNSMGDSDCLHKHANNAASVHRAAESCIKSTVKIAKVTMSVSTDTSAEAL
Data set [17] deals with T3, Endothelin receptor type B (Homo sapiens) (UniProt P24530).
T3 sequence (whole entry): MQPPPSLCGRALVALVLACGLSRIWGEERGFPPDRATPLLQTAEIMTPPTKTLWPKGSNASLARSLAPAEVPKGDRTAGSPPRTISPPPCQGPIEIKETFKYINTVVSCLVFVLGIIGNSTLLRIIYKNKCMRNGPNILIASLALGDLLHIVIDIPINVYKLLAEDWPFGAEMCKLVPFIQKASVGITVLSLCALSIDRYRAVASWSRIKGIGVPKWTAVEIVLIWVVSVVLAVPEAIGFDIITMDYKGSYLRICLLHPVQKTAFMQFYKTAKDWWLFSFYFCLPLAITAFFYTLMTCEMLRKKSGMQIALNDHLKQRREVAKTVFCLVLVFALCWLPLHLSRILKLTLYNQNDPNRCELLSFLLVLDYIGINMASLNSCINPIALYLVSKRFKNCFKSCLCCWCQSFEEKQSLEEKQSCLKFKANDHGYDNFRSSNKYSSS
Kind of data set: Displacement of [125I]endothelin-1 from human recombinant ETB receptor expressed in CHO cells at 100 uM measured after 120 mins by scintillation counting method relative to control. The class given is cell-based.

Data set [18] addresses D(1B) dopamine receptor (Homo sapiens) (UniProt P21918). As to the kind of experiment: Displacement of [3H]SCH 23390 from human recombinant D5 receptor expressed in GH4 cells at 100 uM measured after 60 mins by scintillation counting method relative to control. In kind it is cell-based.
Data set [19] relates to Mus musculus. Kind of data set: Anticonvulsant activity in ip dosed 6-Hz induced seizure mouse model assessed as restoration of normal activity within 10 secs from stimulation by measuring time to peak effect at 32 mA. The class given is functional.
Data set [20] has as its system Mus musculus. As to the kind of experiment: Anticonvulsant activity in 6-Hz induced seizure mouse model assessed as restoration of normal activity within 10 secs from stimulation at 100 mg/kg, ip at 32 mA measured at […] post dose. In kind it is functional, organism-based.

Sequence of 5-hydroxytryptamine receptor 1B (Rattus norvegicus) (P28564 whole entry): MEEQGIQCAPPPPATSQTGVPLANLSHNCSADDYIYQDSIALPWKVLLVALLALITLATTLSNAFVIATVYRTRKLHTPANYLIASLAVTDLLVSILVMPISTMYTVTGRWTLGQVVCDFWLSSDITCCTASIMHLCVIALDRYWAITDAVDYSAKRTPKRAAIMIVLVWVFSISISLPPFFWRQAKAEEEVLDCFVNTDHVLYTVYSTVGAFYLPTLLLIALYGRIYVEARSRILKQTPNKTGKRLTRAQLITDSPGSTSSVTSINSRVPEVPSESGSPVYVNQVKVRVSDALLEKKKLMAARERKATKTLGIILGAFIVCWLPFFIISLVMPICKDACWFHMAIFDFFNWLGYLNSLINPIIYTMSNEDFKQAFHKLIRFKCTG
Sequence of Adenosine receptor A2a (Homo sapiens) (P29274 whole entry): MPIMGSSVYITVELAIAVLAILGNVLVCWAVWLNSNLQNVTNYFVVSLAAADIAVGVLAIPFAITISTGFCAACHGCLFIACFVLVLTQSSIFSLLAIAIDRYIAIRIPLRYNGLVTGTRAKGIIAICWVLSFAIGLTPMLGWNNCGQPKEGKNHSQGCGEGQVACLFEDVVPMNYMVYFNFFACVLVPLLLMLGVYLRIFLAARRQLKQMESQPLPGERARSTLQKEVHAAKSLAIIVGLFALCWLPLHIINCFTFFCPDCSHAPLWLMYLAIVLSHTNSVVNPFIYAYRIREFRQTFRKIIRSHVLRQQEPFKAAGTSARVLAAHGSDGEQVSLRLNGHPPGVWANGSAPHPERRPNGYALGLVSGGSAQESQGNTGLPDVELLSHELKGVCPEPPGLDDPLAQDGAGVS
Sequence of D(1B) dopamine receptor (Homo sapiens) (P21918 whole entry): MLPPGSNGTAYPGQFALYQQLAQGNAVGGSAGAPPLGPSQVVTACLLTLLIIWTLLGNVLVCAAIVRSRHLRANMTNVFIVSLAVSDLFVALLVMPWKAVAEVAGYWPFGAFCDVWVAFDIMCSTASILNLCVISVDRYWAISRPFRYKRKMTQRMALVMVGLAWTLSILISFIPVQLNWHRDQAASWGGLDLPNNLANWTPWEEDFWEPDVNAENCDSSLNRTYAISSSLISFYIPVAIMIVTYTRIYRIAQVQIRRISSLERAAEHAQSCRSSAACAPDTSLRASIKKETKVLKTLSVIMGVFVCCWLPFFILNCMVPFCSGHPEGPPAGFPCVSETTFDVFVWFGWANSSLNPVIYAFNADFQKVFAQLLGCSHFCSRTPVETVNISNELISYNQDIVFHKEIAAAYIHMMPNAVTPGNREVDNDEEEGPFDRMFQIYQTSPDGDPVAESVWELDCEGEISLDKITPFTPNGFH
Sequence of D(2) dopamine receptor (Homo sapiens) (P14416 whole entry): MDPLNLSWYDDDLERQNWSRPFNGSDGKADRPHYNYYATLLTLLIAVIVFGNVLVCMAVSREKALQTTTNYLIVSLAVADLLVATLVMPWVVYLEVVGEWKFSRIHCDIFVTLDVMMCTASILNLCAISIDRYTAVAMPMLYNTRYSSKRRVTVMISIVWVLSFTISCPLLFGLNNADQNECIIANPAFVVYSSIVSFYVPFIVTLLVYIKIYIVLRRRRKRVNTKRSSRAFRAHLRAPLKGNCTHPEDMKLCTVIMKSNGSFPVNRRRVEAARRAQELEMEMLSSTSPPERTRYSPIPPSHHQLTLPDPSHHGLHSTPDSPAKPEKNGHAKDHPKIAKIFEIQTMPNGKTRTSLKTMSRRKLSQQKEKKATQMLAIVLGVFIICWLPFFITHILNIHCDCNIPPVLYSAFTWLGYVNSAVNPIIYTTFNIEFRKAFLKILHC

For `Cc1ccccc1/C=C/C(=O)N[C@@H](C)CO`, the TD50 was over 500 mg/kg in data set [1] and 282 mg/kg in data set [9]. Also, the inhibition in data set [2] was 21.9%; in [3], 32.4%; in data set [5] it was -3.2%; in data set [8], 3.8%; in data set [11] it was 5%; in data set [12], 30.4%. The inhibition was 7% in data set [13]; -8% in data set [14]; 9.1% in data set [16]; -8.2% in data set [17]; 8% in data set [18]. Moreover, the Time in the data set on Mus musculus [4] is 0.5 h; with Rattus norvegicus [15], 1 h; in the data set on Mus musculus [19], 0.25 h. Moreover, the selectivity ratio in data set [6] is 3.55. Besides, the ED50 with Mus musculus [7] is 42.3 mg/kg; with Rattus norvegicus [10] it was 24.6 mg/kg. For the same compound, the outcome in the data set on Mus musculus [20] was Active.

Turning to `CC(O)CNC(=O)/C=C/c1ccc(Cl)cc1` (centres undefined), the TD50 in data set [1] and in data set [9] was over 500 mg/kg each time. Moreover, the inhibition in data set [2] is 27%; in data set [3], -3.2%; in data set [5] it was 8.9%; in data set [8], 25.2%; in data set [11] it was 8.7%; in data set [12], 48.1%. In addition, the inhibition in [13] was 4.6%; in [14], -9%; in data set [16] it was 4.7%; in [17], -4.6%; in [18], 13%. The values for the Time in the data set with Mus musculus [4], in the data set with Rattus norvegicus [15] and with Mus musculus [19] were 0.25 h, 0.5 h and 0.5 h, respectively. Moreover, the selectivity ratio in data set [6] came out at 3.51. Moreover, the figures for the ED50 in the data set on Mus musculus [7] and in the data set with Rattus norvegicus [10] were 51.3 mg/kg and 56 mg/kg, respectively. Further, the outcome in the data set on Mus musculus [20] was Active.

Consider `CCC(CO)NC(=O)/C=C/c1ccc(Cl)cc1` (centres undefined), for which the TD50 in [1] worked out at 277 mg/kg. Besides, the inhibition in data set [2] was 27.1%; in [3] it was -1.5%; in [5], 1.7%; in data set [8] it was 27.3%; in data set [11] it was 1.8%; in data set [12], 61.7%. Besides, the inhibition in data set [13] was 3.7%; in data set [14], 2.1%; in data set [16], 11.5%; in [17], -10%; in data set [18] it was 12.3%. Besides, the Time with Mus musculus [4] was found to be 0.5 h; in the data set with Rattus norvegicus [15], 0.5 h; in the data set with Mus musculus [19], 0.25 h. Further, the selectivity ratio in [6] was 2.12. In addition, the ED50 in the data set with Mus musculus [7] was found to be 92.9 mg/kg; in the data set with Rattus norvegicus [10], 64.4 mg/kg. Besides, the outcome with Mus musculus [20] was Active.
